According to patent publication US4889848A, “Tricyclic pyridine derivatives” (Hoffmann-La Roche Inc., priority 1988, dated 1989):
Read-outs that look alike come from different tables or passages of the source.

How the values were obtained:
[1] = acute toxicity, single oral administration to mice; settings: mouse, in vivo, p.o.
Experimental: (§1) In this animal test, the compound under investigation is adminstered orally or intravenously to female rats and 30 minutes later there are administered intraperitioneally 120 mg/kg of pentetrazole, which causes emprosthotonus and tonic stretchings of the fore and/or hind limbs in unprotected animals 1-4 minutes after the injection. Ten (10) experimental animals are used per dosage of test substance. After counting the protected experimental animals, the ED50 is determined according to the […]. The ED50 is that dosage which protects 50% of the experimental animals from the spasmodic seizures caused by pentetrazole. The results which have been obtained with representative members of the class of compound defined by formula I in the experiment described previously are compiled in the following Table. Moreover, the Table contains data concerning the acute toxicity (LD50) of some of the compounds of formula I in mg/kg in the case of single oral administration to mice.

[2] = tested on: spasmodic seizures caused by pentetrazole; assay: antipentetrazole test (protection from pentetrazole-induced seizures); type: in vivo, female rats; settings: Rattus norvegicus, po, read-out: ED50 (dosage which protects 50% of the experimental animals from the spasmodic seizures caused by pentetrazole)
Experimental: As mentioned earlier, the compounds of formula I have valuable pharmacological properties.
as §1

[3] = female rats, compound given 30 minutes before 120 mg/kg pentetrazole intraperitoneally, 10 animals per dosage

Row | Structure (SMILES) | LD50 [1] | ED50 [2, 3] | ED50 [2]
1 | O=C(c1cc(-c2ccccc2)c(=O)n2c1-c1cc(Cl)ccc1CC2)N1CCC(O)CC1 [B, 1-[(10-Chloro-6,7-dihydro-4-oxo-3-phenyl-4H-benzo[a]quinolizin-1-yl)carbonyl]-4-piperidinol] | > 5000 mg/kg | 5.4 mg/kg | 
2 | O=C(OCc1cc(-c2ccccc2)c(=O)n2c1-c1sccc1CC2)N1CCOCC1 [C, (4,5-Dihydro-7-oxo-8-phenyl-7H-thieno[2,3-a]quinolizin-10-yl)methyl 4-morpholinecarboxylate] |  |  | 15.9 mg/kg
3 | COCCNC(=O)c1cc(-c2ccccc2)c(=O)n2c1-c1cc(Cl)ccc1CC2 [Compound A, 10-Chloro-6,7-dihydro-N-(2-methoxyethyl)-4-oxo-3-phenyl-4H-benzo[a]quinolizine-1-carboxamide] | > 5000 mg/kg |  | 2.6 mg/kg
4 | CC1CN(C(=O)c2cc(-c3ccccc3)c(=O)n3c2-c2cc(Cl)ccc2CC3)CC(C)O1 (centres unmarked) [D, 4-[(6,7-Dihydro-4-oxo-3-phenyl-10-chloro-4H-benzo[a]quinolizin-1-yl)carbonyl]-2,6-dimethylmorpholine] | > 5000 mg/kg |  | 1.2 mg/kg
5 | O=C(c1cc(-c2ccccc2)c(=O)n2ccc3ccsc3c12)N1CCC[C@H]1CO [E, (S)-1-[(7-oxo-8-phenyl-7H-thieno[2,3-a]quinolizin-10-yl)carbonyl]-2-pyrrolidinemethanol] | 625 mg/kg |  | 3.5 mg/kg
6 | COC[C@@H]1CCCN1C(=O)c1cc(-c2ccccc2)c(=O)n2ccc3ccsc3c12 [F, (S)-2-methoxymethyl-1-[(7-oxo-8-phenyl-7H-thieno[2,3-a]quinolizin-10-yl)carbonyl]pyrrolidine] | 5000 mg/kg |  | 2.8 mg/kg
7 | COC1CCN(C(=O)c2cc(-c3ccccc3)c(=O)n3ccc4ccc(Cl)cc4c23)C1 (centres unmarked) [G, 1-[(10-chloro-4-oxo-3-phenyl-4H-benzo[a]quinolizin-1-yl)carbonyl]-3-methoxypyrrolidine] | 2500 mg/kg |  | 0.12 mg/kg
8 | O=C(c1cc(-c2ccccc2)c(=O)n2ccc3ccc(Cl)cc3c12)N1CCC[C@H]1CO [H, (S)-1-[(10-chloro-4-oxo-3-phenyl-4H-benzo[a]quinolizin-1-yl)carbonyl]-2-pyrrolidinemethanol] | > 3000 mg/kg |  | 1.3 mg/kg
9 | C[C@@H]1CN(C(=O)c2cc(-c3ccccc3)c(=O)n3c2-c2sccc2CC3)C[C@H](C)O1 [I, cis-4-[(4,5-dihydro-7-oxo-8-phenyl-7H-thieno[2,3-a]-quinolizin-10-yl)carbonyl]-2,6-dimethylmorpholine] | > 5000 mg/kg | 5.9 mg/kg | 
10 | COC1CCN(C(=O)c2cc(-c3ccccc3)c(=O)n3c2-c2cc(Cl)ccc2CC3)CC1 [K] | > 5000 mg/kg |  | 0.56 mg/kg
11 | COC1CCN(C(=O)c2cc(-c3ccccc3)c(=O)n3ccc4ccc(Cl)cc4c23)CC1 [L, 1-[(10-Chloro-3-phenyl-4-oxo-4H-benzo[a]quinolizin-1-yl)carbonyl]-4-methoxypiperidine] | > 5000 mg/kg |  | 0.22 mg/kg
12 | CCN(CCOC)C(=O)c1cc(-c2ccccc2)c(=O)n2ccc3ccsc3c12 [M, N-ethyl-N-(2-methoxyethyl)-7-oxo-8-phenyl-7H-thieno[2,3-a]quinolizine-10-carboxamide] | 5000 mg/kg |  | 5 mg/kg
13 | COCCN(C)C(=O)c1cc(-c2ccccc2)c(=O)n2ccc3ccsc3c12 [N, N-(2-Methoxyethyl)-N-methyl-7-oxo-8-phenyl-7H-thieno[2,3-a]quinolizine-10-carboxamide] | 625 mg/kg |  | 0.97 mg/kg
14 | COC[C@H]1CCCN1C(=O)c1cc(-c2ccccc2)c(=O)n2ccc3ccsc3c12 [O, (R)-2-(methoxymethyl)-1-[(7-oxo-8-phenyl-7H-thieno[2,3-a]quinolizin-10-yl)carbonyl]pyrrolidine] | 5000 mg/kg |  | 0.49 mg/kg
15 | COC1CCN(C(=O)c2cc(-c3ccccc3)c(=O)n3c2-c2cc(Cl)ccc2CC3)C1 (centres unmarked) [P, 1-[(10-Chloro-6,7-dihydro-4-oxo-3-phenyl-4H-benzo[a]quinolizin-1-yl)carbonyl]-3-methoxypyrrolidine] | > 5000 mg/kg |  | 0.31 mg/kg
16 | CCOC1CCN(C(=O)c2cc(-c3ccccc3)c(=O)n3c2-c2cc(Cl)ccc2CC3)C1 (centres unmarked) [Q, 1-[(10-Chloro-6,7-dihydro-4-oxo-3-phenyl-4H-benzo[a]quinolizin-1-yl)carbonyl]-3-ethoxypyrrolidine] | > 5000 mg/kg |  | 3.1 mg/kg
17 | CO[C@@H]1CCN(C(=O)c2cc(-c3ccccc3)c(=O)n3ccc4ccsc4c23)C1 [R, (R)-3-methoxy-1-[(7-oxo-8-phenyl-7H-thieno[2,3-a]-quinolizin-10-yl)carbonyl]pyrrolidine] | 1250 mg/kg |  | 0.17 mg/kg
18 | CO[C@H]1CCN(C(=O)c2cc(-c3ccccc3)c(=O)n3ccc4ccsc4c23)C1 [S, (S)-3-methoxy-1-[(7-oxo-8-phenyl-7H-thieno[2,3-a]-quinolizin-10-yl)carbonyl]pyrrolidine] | 5000 mg/kg |  | 0.87 mg/kg
19 | COC[C@@H]1CCCN1C(=O)c1cc(-c2ccccc2)c(=O)n2c1-c1cc(Cl)ccc1CC2 [T, (S)-1-[(10-Chloro-6,7-dihydro-4-oxo-3-phenyl-4H-benzo[a]quinolizin-1-yl)carbonyl]-2-(methoxymethyl)pyrrolidine] | > 5000 mg/kg |  | 3.8 mg/kg
20 | COC1CCN(C(=O)c2cc(-c3ccccc3)c(=O)n3c2-c2sccc2CC3)C1 (centres unmarked) [U, 1-[(4,5-Dihydro-7-oxo-8-phenyl-7H-thieno[2,3-a]quinolizin-10-yl)carbonyl]-3-methoxypyrrolidine] | > 5000 mg/kg |  | 2.7 mg/kg
21 | COC1CN(C(=O)c2cc(-c3ccccc3)c(=O)n3ccc4ccsc4c23)C1 [V, 3-Methoxy-1-[(7-oxo-8-phenyl-7H-thieno[2,3-a]quinolizin-10-yl)carbonyl]azetidine] | > 5000 mg/kg |  | 0.13 mg/kg
22 | O=C(c1cc(-c2ccccc2)c(=O)n2ccc3ccc(Cl)cc3c12)N1CCC[C@@H]1CO [W, (R)-1-[(10-Chloro-4-oxo-3-phenyl-4H-benzo[a]quinolizin-1-yl)carbonyl]-2-pyrrolidinemethanol] | > 3000 mg/kg |  | 0.51 mg/kg
23 | COC[C@@H]1CCCN1C(=O)c1cc(-c2ccccc2)c(=O)n2ccc3ccc(Cl)cc3c12 [X, (S)-1-[(10-Chloro-4-oxo-3-phenyl-4H-benzo[a]quinolizin-1-yl)carbonyl]-2-(methoxymethyl)pyrrolidine] | 5000 mg/kg |  | 1.1 mg/kg
24 | COC[C@H]1CCCN1C(=O)c1cc(-c2ccccc2)c(=O)n2ccc3ccc(Cl)cc3c12 [Y, (R)-1-[(10-Chloro-4-oxo-3-phenyl-4H-benzo[a]quinolizin-1-yl)carbonyl]-2-(methoxymethyl)pyrrolidine] | 5000 mg/kg |  | 0.41 mg/kg
